Reference: ChEMBL document CHEMBL5316303, “[1,2,4]Triazolo[3,4-b]benzothiazole Scaffold as Versatile Nicotinamide Mimic Allowing Nanomolar Inhibition of Different PARP Enzymes” (J Med Chem, 2023)

Key:
[1] = Stability in human plasma measured upto 24 hrs by UV/LC-MS analysis; type: ADME, cell-free
HEK-293T = test: Cytotoxicity in […] cells at 10 to 100 uM measured after 24 hrs by WST-1 based colorimetric assay; type: toxicity, cell-based; settings: human, dose 10-100 µM
[2] = Stability of the compound in PBS buffer at pH 7.4 measured upto 24 hrs by UV/LC-MS analysis; type: physicochemical; settings: pH 7.4, 24 h
[3] = Stability of the compound in MeOH measured upto 24 hrs by UV/LC-MS analysis; type: physicochemical
[4] = target: T1, Protein mono-ADP-ribosyltransferase TIPARP (Homo sapiens, UniProt Q7Z3E1); test: Inhibition of N-terminal MBP tagged/C-terminal PARP7 (unknown origin) expressed in Escherichia coli in presence of NAD+ by proximity enhanced assay
T1 sequence (Q7Z3E1 whole entry): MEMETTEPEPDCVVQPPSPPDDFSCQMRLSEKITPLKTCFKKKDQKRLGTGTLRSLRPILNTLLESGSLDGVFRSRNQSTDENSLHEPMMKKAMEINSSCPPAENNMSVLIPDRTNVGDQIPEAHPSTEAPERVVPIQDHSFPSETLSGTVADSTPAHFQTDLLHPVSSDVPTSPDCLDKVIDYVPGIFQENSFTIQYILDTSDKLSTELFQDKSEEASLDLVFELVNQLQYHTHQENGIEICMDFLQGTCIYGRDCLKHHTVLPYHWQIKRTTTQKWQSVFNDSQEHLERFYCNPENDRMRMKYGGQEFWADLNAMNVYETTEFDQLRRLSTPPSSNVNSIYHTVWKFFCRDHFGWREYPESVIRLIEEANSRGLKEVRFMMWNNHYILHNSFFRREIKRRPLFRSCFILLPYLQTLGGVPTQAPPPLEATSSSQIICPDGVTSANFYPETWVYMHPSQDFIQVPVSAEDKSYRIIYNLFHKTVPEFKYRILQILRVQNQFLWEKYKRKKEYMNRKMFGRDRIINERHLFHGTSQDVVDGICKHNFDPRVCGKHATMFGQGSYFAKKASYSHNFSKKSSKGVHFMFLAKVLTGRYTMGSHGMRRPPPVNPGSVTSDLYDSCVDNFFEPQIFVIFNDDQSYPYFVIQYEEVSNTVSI

[5] = target: Protein mono-ADP-ribosyltransferase PARP6 (Homo sapiens, UniProt Q2NL67); test: Inhibition of N-terminal 6 His-MBP tagged human PARP6 expressed in Sf21 cells incubated for 18 hrs in presence of NAD+
Sequence of Protein mono-ADP-ribosyltransferase PARP6 (Q2NL67 whole entry): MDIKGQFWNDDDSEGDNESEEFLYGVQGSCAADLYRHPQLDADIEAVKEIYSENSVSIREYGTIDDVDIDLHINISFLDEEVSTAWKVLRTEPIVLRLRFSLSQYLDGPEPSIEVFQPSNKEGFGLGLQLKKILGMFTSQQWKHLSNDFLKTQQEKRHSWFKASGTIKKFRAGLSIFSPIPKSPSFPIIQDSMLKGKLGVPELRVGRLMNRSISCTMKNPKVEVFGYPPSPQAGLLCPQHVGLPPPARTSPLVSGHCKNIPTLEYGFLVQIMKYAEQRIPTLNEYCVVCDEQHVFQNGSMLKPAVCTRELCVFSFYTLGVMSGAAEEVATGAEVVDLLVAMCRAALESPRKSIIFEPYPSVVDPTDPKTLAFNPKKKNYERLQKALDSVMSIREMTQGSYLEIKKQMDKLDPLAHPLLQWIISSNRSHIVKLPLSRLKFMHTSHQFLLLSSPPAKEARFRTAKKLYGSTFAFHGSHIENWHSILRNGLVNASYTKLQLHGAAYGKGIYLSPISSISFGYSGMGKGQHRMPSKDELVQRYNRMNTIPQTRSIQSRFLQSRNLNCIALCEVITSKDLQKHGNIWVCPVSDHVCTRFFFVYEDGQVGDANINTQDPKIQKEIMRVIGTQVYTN

[6] = target: T2, Protein mono-ADP-ribosyltransferase PARP15 (Homo sapiens, UniProt Q460N3); test: Inhibition of N-terminal MBP tagged/C-terminal PARP15 (unknown origin) expressed in Escherichia coli in presence of NAD+
T2 sequence (Q460N3 whole entry): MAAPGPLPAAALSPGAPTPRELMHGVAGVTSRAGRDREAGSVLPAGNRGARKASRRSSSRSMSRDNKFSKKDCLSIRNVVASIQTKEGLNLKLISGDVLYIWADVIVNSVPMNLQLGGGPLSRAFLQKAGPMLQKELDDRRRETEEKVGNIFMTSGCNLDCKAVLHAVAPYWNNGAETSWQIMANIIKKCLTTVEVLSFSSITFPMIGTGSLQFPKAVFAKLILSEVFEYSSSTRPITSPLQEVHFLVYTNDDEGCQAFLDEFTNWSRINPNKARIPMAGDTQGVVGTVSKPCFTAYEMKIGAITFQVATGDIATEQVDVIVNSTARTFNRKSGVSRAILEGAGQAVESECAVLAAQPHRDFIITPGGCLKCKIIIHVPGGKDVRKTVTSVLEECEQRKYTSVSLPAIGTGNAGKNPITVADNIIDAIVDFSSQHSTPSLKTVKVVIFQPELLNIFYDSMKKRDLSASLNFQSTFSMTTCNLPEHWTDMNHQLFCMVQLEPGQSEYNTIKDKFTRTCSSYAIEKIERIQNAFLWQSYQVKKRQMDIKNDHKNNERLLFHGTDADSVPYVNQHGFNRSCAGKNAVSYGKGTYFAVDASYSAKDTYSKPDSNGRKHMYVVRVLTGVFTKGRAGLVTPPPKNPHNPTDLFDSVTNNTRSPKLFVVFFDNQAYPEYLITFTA

[7] = target: T3, Protein mono-ADP-ribosyltransferase PARP10 (Homo sapiens, UniProt Q53GL7); test: Inhibition of N-terminal MBP tagged/C-terminal PARP10 (unknown origin) expressed in Escherichia coli in presence of NAD+
T3 sequence (Q53GL7 whole entry): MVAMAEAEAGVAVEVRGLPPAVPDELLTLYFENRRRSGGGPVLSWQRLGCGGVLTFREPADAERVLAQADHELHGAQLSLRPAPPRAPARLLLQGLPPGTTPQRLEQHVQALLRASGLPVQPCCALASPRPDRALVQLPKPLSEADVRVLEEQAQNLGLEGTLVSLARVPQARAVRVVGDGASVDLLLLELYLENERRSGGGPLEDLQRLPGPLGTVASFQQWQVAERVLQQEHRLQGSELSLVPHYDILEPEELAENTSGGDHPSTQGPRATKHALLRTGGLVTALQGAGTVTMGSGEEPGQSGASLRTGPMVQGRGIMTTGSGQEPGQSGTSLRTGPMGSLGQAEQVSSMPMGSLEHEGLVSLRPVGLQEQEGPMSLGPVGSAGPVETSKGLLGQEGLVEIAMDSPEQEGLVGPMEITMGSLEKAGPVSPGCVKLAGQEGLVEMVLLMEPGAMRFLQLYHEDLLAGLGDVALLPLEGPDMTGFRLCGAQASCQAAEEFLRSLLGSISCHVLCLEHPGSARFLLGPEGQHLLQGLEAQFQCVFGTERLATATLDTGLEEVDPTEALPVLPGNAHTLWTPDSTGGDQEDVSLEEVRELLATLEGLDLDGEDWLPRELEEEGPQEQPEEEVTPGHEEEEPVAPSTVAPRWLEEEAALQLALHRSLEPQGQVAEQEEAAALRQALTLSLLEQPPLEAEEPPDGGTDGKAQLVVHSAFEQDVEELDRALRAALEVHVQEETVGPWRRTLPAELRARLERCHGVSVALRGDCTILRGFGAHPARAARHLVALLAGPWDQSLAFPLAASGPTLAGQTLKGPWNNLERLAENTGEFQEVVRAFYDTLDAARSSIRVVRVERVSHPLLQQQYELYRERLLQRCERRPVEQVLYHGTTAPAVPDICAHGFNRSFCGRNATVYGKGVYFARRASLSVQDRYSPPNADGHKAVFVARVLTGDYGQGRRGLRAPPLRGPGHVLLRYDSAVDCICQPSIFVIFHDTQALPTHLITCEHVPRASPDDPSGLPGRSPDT

IC50 [6] | IC50 [7] | SMILES | Activity (HEK-293T) | also measured
Not Active | Not Active | COc1ccc(OC)c2c1sc1nnc(NC(=O)C(C)(C)C)n12 |  | 
Not Active | Not Active | COc1ccc(OC)c2c1sc1nnc(S)n12 |  | 
Not Active | Not Active | COc1ccc(OC)c2c1sc1nnc(SC)n12 |  | 

The next lines start with the compound.

SMILES | IC50 [6] | IC50 [7] | Activity (HEK-293T) | also measured
COc1ccc(OC)c2c1sc1nnc(N)n12 |  |  | Non-Toxic | Stability [1]: > 24 h; Stability [2]: > 24 h; Stability [3]: > 24 h
Oc1ccc(O)c2c1sc1nncn12 |  |  | Toxic | 
Oc1ccc2c(c1)sc1nncn12 |  |  | Non-Toxic | Stability [1]: > 24 h; IC50 [4]: Not Active; IC50 [5]: Not Active; Stability [2]: > 24 h; Stability [3]: > 24 h
Cc1ccc2c(c1)sc1nnc(N)n12 |  |  | Non-Toxic | Stability [1]: > 24 h; Stability [2]: > 24 h; Stability [3]: > 24 h
Cc1ccc2c(c1)sc1nnc(NCc3ccc(Cl)cc3)n12 |  | Not Active |  | 
COc1ccc(OC)c2c1sc1nnc(NC(=O)c3ccc(Cl)cc3)n12 |  | Not Active |  | 
CC(C)c1ccc2c(c1)sc1nncn12 |  |  | Toxic | 
COc1ccc(OC)c2c1sc1nnc(NC(C)=O)n12 | Not Active | Not Active |  | 
